In assay [1] the test system is certain mammalian target cells. To be noted: known compounds; cited from earlier work.
In assay [2] the test system is KB V1 cells (multiple drug resistant). In words: Chemosensitization (cytotoxicity) assay of multiple drug resistant cells, MTT. It counts as cell-based. As to conditions: Homo sapiens, KB-V1, 72 h. The procedure:
(§1) Cytotoxicity assays to determine 50% inhibition of growth (IC50) were done in 96-well tissue culture microtiter trays (Costar, Cambridge, Mass.). Cell growth was determined as follows: KB 3-1 (sensitive) and KB V1 (multiple drug resistant) cells grown in Dulbecco's modified Eagle medium (Gibco BRL, Division of Life Technologies, Inc., Grand Island, N.Y.) were added to each microtiter well at 1×10^4 cells in 200 μL of growth medium in the presence and absence of verapamil, 5-acetylardeemin and 5-acetyl-15b-β-hydroxyardeemin at […]. Anticancer cytotoxic agents adriamycin (ADR), vinblastine (VBL) and vincristine (VCR) (Sigma, St. Louis, Mo.) were added in final concentrations ranging from 0.0001 to 10 μg/mL. Cells were incubated at 37° C. in a humidified atmosphere of 4% CO2 for 72 hours. Cell growth was measured by the reduction of 3-(4,5-dimethyl-thiazol-2-yl)-2,5-diphenyltetrazolium bromide (MTT), added to each well at 0.1 mg/mL. The plates were incubated at 37° C. in humidified 4% CO2 for 3 hours. The trays were spun at 1000×g for 10 minutes, the supernatant removed by aspiration and the residual formazan reduction product dissolved in 100 μL of DMSO. Growth was quantitated by measuring the optical absorbance in each well at 570 nm in a microtiter plate reader.

The subject of another assay is KB 3-1 cells (sensitive). In words: Cytotoxicity assay in drug-sensitive cells, MTT. In kind it is cell-based. To be noted: Homo sapiens, modulator: none, 72 hours. The protocol: as §1

The values that follow come from patent US5284947A, “Multiple drug resistance-attenuating compounds” (Abbott Laboratories, priority 1992, dated 1994).

In brackets after ≈: the same amount, converted by molar mass. Where two headings read alike, the source gives them in different places.

Regarding `COc1ccc(CCN(C)CCCC(C#N)(c2ccc(OC)c(OC)c2)C(C)C)cc1OC` (stereo not drawn) [Verapamil, verapamil], the “attenuation of drug resistance” value in assay [1] is listed as “attenuate, if not reverse, drug resistance in certain mammalian target cells”.

As to `CC[C@]1(O)C[C@@H]2CN(CCc3c([nH]c4ccccc34)[C@@](C(=O)OC)(c3cc4c(cc3OC)N(C)[C@H]3[C@@](O)(C(=O)OC)[C@H](OC(C)=O)[C@]5(CC)C=CCN6CC[C@]43[C@@H]65)C2)C1` [VBL, vinblastine], the IC50 (commonly the concentration needed to halve the response being measured) is 1.2 µg/mL in assay [2] (read-out: VBL-IC50) and 0.001 µg/mL (≈ 1.23 nM) in the assay on KB 3-1 cells (sensitive) (read-out: VBL-IC50).

For `COc1cccc2c1C(=O)c1c(O)c3c(c(O)c1C2=O)C[C@@](O)(C(=O)CO)C[C@@H]3O[C@H]1C[C@H](N)[C@H](O)[C@H](C)O1` [ADR, adriamycin], the IC50 in assay [2] (read-out: ADR-IC50) was determined as 3 µg/mL; in the assay with KB 3-1 cells (sensitive) (read-out: ADR-IC50), 0.012 µg/mL (≈ 22.1 nM).

For `COc1ccc([C@@H]2Sc3ccccc3N(CCN(C)C)C(=O)[C@@H]2OC(C)=O)cc1` [diltiazem], in assay [1], the “attenuation of drug resistance” value was “attenuate, if not reverse, drug resistance in certain mammalian target cells”.

In the case of `CC[C@]1(O)C[C@H]2CN(CCc3c([nH]c4ccccc34)[C@@](C(=O)OC)(c3cc4c(cc3OC)N(C=O)[C@H]3[C@@](O)(C(=O)OC)[C@H](OC(C)=O)[C@]5(CC)C=CCN6CC[C@]43[C@@H]65)C2)C1` [VCR, vincristine], the IC50 in assay [2] (read-out: VCR-IC50) was 7 µg/mL; with KB 3-1 cells (sensitive) (read-out: VCR-IC50), 0.001 µg/mL (≈ 1.21 nM).

In the case of `CCC1=C[C@@H]2CN3CCc4c([nH]c5ccccc45)[C@@](C(=O)OC)(C2)[C@@H]13` [catharanthine], in assay [1], the “attenuation of drug resistance” value is reported as “attenuate, if not reverse, drug resistance in certain mammalian target cells”.
